According to US20230167058A1, “GPX4 COMPOUNDS AND COMPOSITIONS AND METHODS OF TREATMENT USING SAME” (THE TRUSTEES OF COLUMBIA UNIVERSITY IN THE CITY OF NEW YORK, priority 2020, published 2023):

Experiments:
GPX4 [1] = molecular target: T1, GPX4 (Homo sapiens, UniProt P36969, U73C); test: Microscale thermophoresis (MST) binding to GPX4; settings: Table 1
T1 sequence (P36969 33-197 U73C): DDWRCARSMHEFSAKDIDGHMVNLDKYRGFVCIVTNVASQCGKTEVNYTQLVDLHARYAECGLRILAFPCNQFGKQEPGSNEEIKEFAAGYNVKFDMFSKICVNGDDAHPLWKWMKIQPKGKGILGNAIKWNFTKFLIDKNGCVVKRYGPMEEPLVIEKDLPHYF
From the text: (§1) Therefore, we applied a strategy of computer-facilitated design, based on MD simulation (Desmond) and Glide docking (Schrödinger Suite), and experimental high-throughput screening of a lead-optimized compound library of 10,000 compounds (FIGS. 6A-6E). All candidates were first evaluated by thermal denaturation assay and microscale thermophoresis (MST) to validate binding to GPX4 (Table 1). Surface plasmon resonance (SPR) and isothermal titration calorimetry (ITC) were then applied to precisely measure their binding kinetics and affinities, while ^1H-^15N heteronuclear single-quantum coherence (HSQC) NMR spectroscopy informed us of binding sites. We optimized two GPX4-specific activity assays to examine enzymatic inhibitory effects of hit compounds—LC-MS-based substrate/product monitoring and an NADPH-coupled assay. […] Some L880 analogues were also synthesized and tested (Table 2).

GPX4 [2] = molecular target: T1, GPX4; test: Surface plasmon resonance (SPR); assay type: binding; settings: Table 1
From the text: as §1, with “These x-ray structures enabled further optimization of current inhibitors and the design of novel inhibitors targeting various binding sites on GPX4. Therefore,” for “Therefore,”

HT1080 cells = test: Single-point ferroptosis test, cellular viability (CellTiter-Glo); assay type: cell-based, human; settings: 125 μM LOC1886, 48 h
Experimental: 1000 cells of each HT-1080 or G401 cell line were plated 36 μL per well of a 384-well plate on day 1. The remaining cells were immediately tested for Western Blot (to monitor GPX4 protein overexpression level). For dose response curves, compounds were dissolved in DMSO and a 12-point, twofold dilution series was prepared. The compounds were then diluted 1:50 in media and 4 μL was added to each well of the plates on day 2. Final concentrations of the compounds on the 384-well plate started from 2 μM for RSL3/ML162 and 20 μM for IKE/FIN56/FINO2. For single-point ferroptosis test, HT1080 cells were treated either with 12.5 μM RSL3 or 125 μM LOC1886, with or without supplementation of 2 μM Fer-1. After 48 h of treatment, the viability of cells was measured using 1:1 dilution of the CellTiter-Glo luminescent reagent (Promega G7573) with media, which was read on a Victor 5 plate reader after 10 min of shaking at room temperature on day 4. The intensity of luminescence was normalized to that of DMSO control. Results were quantified using GraphPad Prism 9. Based on the dose-response curve of viability, area under curves were calculated and reported in bar graph formats with standard errors using GraphPad Prism 9.

GPX4^U46C [3] = molecular target: T2, GPX4^U46C (Homo sapiens, UniProt P36969, U73C); test: Co-crystal structure of GPX4^U46C with inhibitor; assay type: binding
T2 construct: His6 (N, cleaved yes); made in house; host or cells: E. coli BL21-Gold (DE3), M9 minimal medium with 15NH4Cl
T2 sequence (P36969 33-197 U73C): T1 sequence (P36969 33-197 U73C)
Experimental: GPX4^U46C was pre-incubated with the covalent inhibitors before crystallization using the following specifically optimized condition.
RSL3 and ML162 condition: 50 μM GPX4^U46C incubated with 150 μM RSL3 or ML162 in the reaction buffer (20 mM Tris pH 9.0, 100 mM NaCl, 3 mM TCEP, 1.5% DMSO) at 15° C. for 1 hour before transferring to 4° C. overnight. CDS9 condition: 25 μM GPX4^U46C incubated with 2 mM CDS9 in the reaction buffer (100 mM Tris pH 9.0, 300 mM NaCl, 1 mM TCEP, 2% DMSO) at 37° C. for 2 hours before transferring to 4° C. overnight. TMT10 condition: 25 μM GPX4^U46C incubated with 2 mM TMT10 in the reaction buffer (100 mM Tris pH 9.0, 300 mM NaCl, 2% glycerol, 2% DMSO) at 37° C. for 4 hours before transferring to 4° C. overnight. MAC-5576 condition: 50 μM GPX4^U46C protein was incubated with 500 μM MAC-5576 in the reaction buffer (100 mM Tris pH 9.0, 300 mM NaCl, and 3 mM TCEP, 5% DMSO) at RT for 1 hour before transferring to 4° C. overnight.
After confirmation of covalent binding using intact protein MALDI MS analysis, the protein-inhibitor complex were exchanged into crystallization buffer (10 mM Tris pH 8.0, 5 mM TCEP) and concentrated to 5 mg/ml.

GPX4^U46C [4] = molecular target: T2, GPX4^U46C; test: Inhibition of the activity of purified GPX4^U46C protein (NADPH-coupled); assay type: biochemical; settings: 20 μM RSL3 vs DMSO
Experimental: Similar to the determination of cellular GPX4-specific activity, by coupling the oxidation of NADPH to NADP+ by oxidized glutathione produced by GPX4 in the presence of glutathione reductase, GPX4^U46C activity was assessed by measuring the decrease in NADPH (absorbance at 340 nm). GPX4 reaction buffer was prepared by adding 0.05 U/mL glutathione reductase, 210 μM GSH, 250 μM NADPH, 50 μM Cumene-OOH into 50 mM Tris HCl, pH 8.0, 0.5 mM EDTA. 15 μM His-tagged-GPX4^U46C pre-incubated with DMSO (vehicle) or 20 μM RSL3 was added to the GPX4 reaction buffer and the absorbance at 340 nm was monitored for the following 10 min. Results were quantified using GraphPad Prism 9.

| Compound | MST (GPX4 [1]) | Kd (GPX4 [1]; read-out: MST Kd) | SPR (GPX4 [2]) | induction of ferroptosis (HT1080 cells) | binding site in co-crystal structure (GPX4^U46C [3]) | enzymatic activity of GPX4^U46C after incubation (GPX4^U46C [4]) |
| --- | --- | --- | --- | --- | --- | --- |
| COc1cccc2[nH]c(C(=O)n3ccnc3)cc12 [LOC1886] | positive | 100 µM | positive | able to induce ferroptosis to HT1080 cells |  |  |
| COC(=O)c1ccc([C@@H]2c3[nH]c4ccccc4c3C[C@@H](C(=O)OC)N2C(=O)CCl)cc1 [RSL3, (1S, 3R)-RSL3] |  |  |  |  | bind to cys66 | inhibited the capability of GPX4 to reduce phospholipid hydroperoxides |
